In patent US8802597B2, “Herbicidal pyrimidines” (E I du Pont de Nemours and Company, priority 2003, dated 2014):
Like-named read-outs stand apart in the source and are kept apart here.

Legend:
Experiment in all cases: Test C pre/postemergence
Type in all cases: in vivo
[1] = tested on: Surinam grass (Brachiaria decumbens); details: Urochloa decumbens; for pest or weed control at 16 g/ha: 16 g ai/ha; for pest or weed control at 31 g/ha: 31 g ai/ha; for pest or weed control at 62 g/ha: 62 g ai/ha
Outline: (§1)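 Pre: seeds planted, sprayed same day. Post: 1- to 4-leaf plants (2–18 cm). Formulation: non-phytotoxic solvent + surfactant. Greenhouse 12–14 d; visual % control vs untreated, 0–100.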

[2] = tested on: cocklebur (Xanthium strumarium); details: Xanthium strumarium; for pest or weed control at 16 g/ha: 16 g ai/ha; for pest or weed control at 31 g/ha: 31 g ai/ha; for pest or weed control at 62 g/ha: 62 g ai/ha; for pest or weed control at 125 g/ha: 125 g ai/ha
Outline: as §1

[3] = tested on: common (oilseed) sunflower (Helianthus annuus); details: Helianthus annuus, pre-emergence, Preemergence, scale 0 to 100, 0 no effect, 100 complete control, read-out: Plant response rating, Sunflower
Outline: as §1

[4] = tested on: crabgrass (Digitaria sanguinalis); details: Digitaria sanguinalis; for pest or weed control at 16 g/ha: 16 g ai/ha; for pest or weed control at 31 g/ha: 31 g ai/ha; for pest or weed control at 62 g/ha: 62 g ai/ha; for pest or weed control at 125 g/ha: 125 g ai/ha
Outline: as §1

[5] = tested on: giant foxtail (Setaria faberii); details: Setaria faberi; for pest or weed control at 125 g/ha: 125 g ai/ha; for pest or weed control at 16 g/ha: 16 g ai/ha; for pest or weed control at 31 g/ha: 31 g ai/ha; for pest or weed control at 62 g/ha: 62 g ai/ha
Outline: as §1

[6] = tested on: johnsongrass (Sorghum halepense); details: Sorghum halepense; for pest or weed control at 16 g/ha: 16 g ai/ha; for pest or weed control at 31 g/ha: 31 g ai/ha; for pest or weed control at 62 g/ha: 62 g ai/ha; for pest or weed control at 125 g/ha: 125 g ai/ha
Outline: as §1

kochia (Kochia scoparia) = details: Bassia scoparia; for pest or weed control at 16 g/ha: 16 g ai/ha; for pest or weed control at 31 g/ha: 31 g ai/ha; for pest or weed control at 62 g/ha: 62 g ai/ha; for pest or weed control at 125 g/ha: 125 g ai/ha
Outline: as §1

[7] = tested on: morningglory (Ipomoea coccinea); details: Ipomoea; for pest or weed control at 16 g/ha: 16 g ai/ha; for pest or weed control at 31 g/ha: 31 g ai/ha; for pest or weed control at 62 g/ha: 62 g ai/ha; for pest or weed control at 125 g/ha: 125 g ai/ha
Outline: as §1

[8] = tested on: pigweed (Amaranthus retroflexus); details: Amaranthus retroflexus; for pest or weed control at 16 g/ha: 16 g ai/ha; for pest or weed control at 31 g/ha: 31 g ai/ha; for pest or weed control at 62 g/ha: 62 g ai/ha
Outline: as §1

[9] = tested on: velvetleaf (Abutilon theophrasti); details: Abutilon theophrasti; for pest or weed control at 16 g/ha: 16 g ai/ha; for pest or weed control at 31 g/ha: 31 g ai/ha; for pest or weed control at 62 g/ha: 62 g ai/ha
Outline: as §1

[10] = tested on: woolly cupgrass (Eriochloa villosa); details: Eriochloa villosa; for pest or weed control at 16 g/ha: 16 g ai/ha; for pest or weed control at 31 g/ha: 31 g ai/ha; for pest or weed control at 62 g/ha: 62 g ai/ha; for pest or weed control at 125 g/ha: 125 g ai/ha
Outline: as §1

[11] = tested on: yellow nutsedge (Cyperus esculentus); details: Cyperus; for pest or weed control at 16 g/ha: 16 g ai/ha; for pest or weed control at 31 g/ha: 31 g ai/ha; for pest or weed control at 62 g/ha: 62 g ai/ha
Outline: as §1

[12] = post-emergence, Postemergence, read-out: Plant response rating (scale of 0 to 100), Surinam Grass
[13] = pre-emergence, Preemergence, scale 0 to 100, 0 no effect, 100 complete control, read-out: Plant response rating, Surinam Grass
[14] = post-emergence, Postemergence, read-out: Plant response rating (scale of 0 to 100), Cocklebur
[15] = pre-emergence, Preemergence, scale 0 to 100, 0 no effect, 100 complete control, read-out: Plant response rating, Cocklebur
[16] = post-emergence, Postemergence, read-out: Plant response rating (scale of 0 to 100), Crabgrass
[17] = pre-emergence, Preemergence, scale 0 to 100, 0 no effect, 100 complete control, read-out: Plant response rating, Crabgrass
[18] = post-emergence, Postemergence, read-out: Plant response rating (scale of 0 to 100), Foxtail, Giant
[19] = pre-emergence, Preemergence, scale 0 to 100, 0 no effect, 100 complete control, read-out: Plant response rating, Foxtail, Giant
[20] = post-emergence, Postemergence, read-out: Plant response rating (scale of 0 to 100), Johnsongrass
[21] = pre-emergence, Preemergence, scale 0 to 100, 0 no effect, 100 complete control, read-out: Plant response rating, Johnsongrass
[22] = post-emergence, Postemergence, read-out: Plant response rating (scale of 0 to 100), Kochia
[23] = pre-emergence, Preemergence, scale 0 to 100, 0 no effect, 100 complete control, read-out: Plant response rating, Kochia
[24] = post-emergence, Postemergence, read-out: Plant response rating (scale of 0 to 100), Morningglory
[25] = pre-emergence, Preemergence, scale 0 to 100, 0 no effect, 100 complete control, read-out: Plant response rating, Morningglory
[26] = post-emergence, Postemergence, read-out: Plant response rating (scale of 0 to 100), Pigweed
[27] = pre-emergence, Preemergence, scale 0 to 100, 0 no effect, 100 complete control, read-out: Plant response rating, Pigweed
[28] = post-emergence, Postemergence, read-out: Plant response rating (scale of 0 to 100), Velvetleaf
[29] = pre-emergence, Preemergence, scale 0 to 100, 0 no effect, 100 complete control, read-out: Plant response rating, Velvetleaf
[30] = post-emergence, Postemergence, read-out: Plant response rating (scale of 0 to 100), Cupgrass, Woolly
[31] = pre-emergence, Preemergence, scale 0 to 100, 0 no effect, 100 complete control, read-out: Plant response rating, Cupgrass, Woolly
[32] = post-emergence, Postemergence, read-out: Plant response rating (scale of 0 to 100), Nutsedge, Yellow
[33] = pre-emergence, Preemergence, scale 0 to 100, 0 no effect, 100 complete control, read-out: Plant response rating, Nutsedge, Yellow

SMILES: Nc1nc(-c2ccc(Cl)cc2)nc(C(=O)O)c1Cl [Compound 65, 6-amino-5-chloro-2-(4-chlorophenyl)-4-pyrimidinecarboxylic acid]
- pest or weed control at 125 g/ha ([1]; post-emergence, Postemergence, 125 g ai/ha, scale 0 to 100 (0 no effect, 100 complete control), read-out: Surinam Grass plant response rating): 80%
- pest or weed control at 16 g/ha [1, 12]: 60%
- pest or weed control at 31 g/ha [1, 12]: 80%
- pest or weed control at 62 g/ha [1, 12]: 80%
- pest or weed control at 16 g/ha [1, 13]: 0%
- pest or weed control at 31 g/ha [1, 13]: 40%
- pest or weed control at 62 g/ha [1, 13]: 80%
- pest or weed control at 16 g/ha [2, 14]: 90%
- pest or weed control at 31 g/ha [2, 14]: 100%
- pest or weed control at 62 g/ha [2, 14]: 100%
- pest or weed control at 125 g/ha ([2]; post-emergence, Postemergence, scale 0 to 100 (0 no effect, 100 complete control), read-out: Cocklebur plant response rating): 100%
- pest or weed control at 16 g/ha [2, 15]: 0%
- pest or weed control at 31 g/ha [2, 15]: 30%
- pest or weed control at 62 g/ha [2, 15]: 50%
- pest or weed control at 125 g/ha ([2]; pre-emergence, Preemergence, scale 0 to 100, read-out: Plant response rating, Cocklebur): 90%
- pest or weed control at 16 g/ha ([3]; 16 g ai/ha): 40%
- pest or weed control at 31 g/ha ([3]; 31 g ai/ha): 70%
- pest or weed control at 62 g/ha ([3]; 62 g ai/ha): 95%
- pest or weed control at 16 g/ha [4, 16]: 80%
- pest or weed control at 31 g/ha [4, 16]: 80%
- pest or weed control at 62 g/ha [4, 16]: 90%
- pest or weed control at 125 g/ha ([4]; post-emergence, Postemergence, scale 0 to 100 (0 no effect, 100 complete control), read-out: Crabgrass plant response rating): 90%
- pest or weed control at 16 g/ha [4, 17]: 0%
- pest or weed control at 31 g/ha [4, 17]: 20%
- pest or weed control at 62 g/ha [4, 17]: 70%
- pest or weed control at 125 g/ha ([4]; pre-emergence, Preemergence, scale 0 to 100, read-out: Plant response rating, Crabgrass): 80%
- pest or weed control at 125 g/ha ([5]; post-emergence, Postemergence, scale 0 to 100 (0 no effect, 100 complete control), read-out: Foxtail, Giant plant response rating): 70%
- pest or weed control at 16 g/ha [5, 18]: 50%
- pest or weed control at 31 g/ha [5, 18]: 60%
- pest or weed control at 62 g/ha [5, 18]: 70%
- pest or weed control at 16 g/ha [5, 19]: 0%
- pest or weed control at 31 g/ha [5, 19]: 10%
- pest or weed control at 62 g/ha [5, 19]: 50%
- pest or weed control at 125 g/ha ([5]; pre-emergence, Preemergence, scale 0 to 100, read-out: Plant response rating, Foxtail, Giant): 60%
- pest or weed control at 16 g/ha [6, 20]: 45%
- pest or weed control at 31 g/ha [6, 20]: 60%
- pest or weed control at 62 g/ha [6, 20]: 85%
- pest or weed control at 125 g/ha ([6]; post-emergence, Postemergence, scale 0 to 100 (0 no effect, 100 complete control), read-out: Johnsongrass plant response rating): 85%
- pest or weed control at 16 g/ha [6, 21]: 0%
- pest or weed control at 31 g/ha [6, 21]: 50%
- pest or weed control at 62 g/ha [6, 21]: 60%
- pest or weed control at 125 g/ha ([6]; pre-emergence, Preemergence, scale 0 to 100, read-out: Plant response rating, Johnsongrass): 70%
- pest or weed control at 16 g/ha (kochia (Kochia scoparia); [22]): 85%
- pest or weed control at 31 g/ha (kochia (Kochia scoparia); [22]): 85%
- pest or weed control at 62 g/ha (kochia (Kochia scoparia); [22]): 85%
- pest or weed control at 125 g/ha (kochia (Kochia scoparia); post-emergence, Postemergence, scale 0 to 100 (0 no effect, 100 complete control), read-out: Kochia plant response rating): 90%
- pest or weed control at 16 g/ha (kochia (Kochia scoparia); [23]): 0%
- pest or weed control at 31 g/ha (kochia (Kochia scoparia); [23]): 0%
- pest or weed control at 62 g/ha (kochia (Kochia scoparia); [23]): 50%
- pest or weed control at 125 g/ha (kochia (Kochia scoparia); pre-emergence, Preemergence, scale 0 to 100, read-out: Plant response rating, Kochia): 70%
- pest or weed control at 16 g/ha [7, 24]: 90%
- pest or weed control at 31 g/ha [7, 24]: 90%
- pest or weed control at 62 g/ha [7, 24]: 90%
- pest or weed control at 125 g/ha ([7]; post-emergence, Postemergence, scale 0 to 100 (0 no effect, 100 complete control), read-out: Morningglory plant response rating): 95%
- pest or weed control at 16 g/ha [7, 25]: 0%
- pest or weed control at 31 g/ha [7, 25]: 0%
- pest or weed control at 62 g/ha [7, 25]: 20%
- pest or weed control at 125 g/ha ([7]; pre-emergence, Preemergence, scale 0 to 100, read-out: Plant response rating, Morningglory): 100%
- pest or weed control at 16 g/ha [8, 26]: 90%
- pest or weed control at 31 g/ha [8, 26]: 90%
- pest or weed control at 62 g/ha [8, 26]: 100%
- pest or weed control at 125 g/ha ([8]; post-emergence, Postemergence, 125 g ai/ha, scale 0 to 100 (0 no effect, 100 complete control), read-out: Pigweed plant response rating): 100%
- pest or weed control at 16 g/ha [8, 27]: 40%
- pest or weed control at 31 g/ha [8, 27]: 80%
- pest or weed control at 62 g/ha [8, 27]: 80%
- pest or weed control at 16 g/ha [9, 28]: 65%
- pest or weed control at 31 g/ha [9, 28]: 80%
- pest or weed control at 62 g/ha [9, 28]: 80%
- pest or weed control at 125 g/ha ([9]; post-emergence, Postemergence, 125 g ai/ha, scale 0 to 100 (0 no effect, 100 complete control), read-out: Velvetleaf plant response rating): 90%
- pest or weed control at 16 g/ha [9, 29]: 0%
- pest or weed control at 31 g/ha [9, 29]: 40%
- pest or weed control at 62 g/ha [9, 29]: 80%
- pest or weed control at 16 g/ha [10, 30]: 60%
- pest or weed control at 31 g/ha [10, 30]: 80%
- pest or weed control at 62 g/ha [10, 30]: 85%
- pest or weed control at 125 g/ha ([10]; post-emergence, Postemergence, scale 0 to 100 (0 no effect, 100 complete control), read-out: Cupgrass, Woolly plant response rating): 85%
- pest or weed control at 16 g/ha [10, 31]: 0%
- pest or weed control at 31 g/ha [10, 31]: 0%
- pest or weed control at 62 g/ha [10, 31]: 5%
- pest or weed control at 125 g/ha ([10]; pre-emergence, Preemergence, scale 0 to 100, read-out: Plant response rating, Cupgrass, Woolly): 70%
- pest or weed control at 16 g/ha [11, 32]: 0%
- pest or weed control at 31 g/ha [11, 32]: 0%
- pest or weed control at 62 g/ha [11, 32]: 20%
- pest or weed control at 125 g/ha ([11]; post-emergence, Postemergence, 125 g ai/ha, scale 0 to 100 (0 no effect, 100 complete control), read-out: Nutsedge, Yellow plant response rating): 50%
- pest or weed control at 16 g/ha [11, 33]: 0%
- pest or weed control at 31 g/ha [11, 33]: 0%
- pest or weed control at 62 g/ha [11, 33]: 30%
